{"source": "paper PMC7590151", "about": "“Chiral Cyclobutane-Containing Cell-Penetrating Peptides as Selective Vectors for Anti-Leishmania Drug Delivery Systems” (International Journal of Molecular Sciences, 2020)", "system": "Leishmania donovani promastigotes", "test": "Viability of Leishmania donovani promastigotes (MTT reduction)", "type": "cell-based", "conditions": "L. donovani promastigotes 20 × 10^6 cells/mL, 4 h, 26 °C, full range of concentrations assayed (comparison 15 vs 16 at 5, 10 and 25 μM)", "method": "The cellular viability in the presence of the peptides was assessed by the MTT reduction at both stages of the parasite after 4 h incubation (Figure 5).\nThe experiments were carried out with Leishmania donovani promastigotes (MHOM/SI/00/1S-2D strain) and Leishmania pifanoi amastigotes (MHOM/VE/60/Ltrod strain), respectively. Promastigotes were grown at 26 °C in RPMI medium supplemented with 10% of FCS, 2 mM L-glutamine, 20 U/mL unicillin 20 plus 48 µg/mL gentamicin.\nThe viability assays were carried out using the reduction of MTT as described. The parasites were aliquoted into 96-microwell plates at a final concentration of 20 × 10^6 cells/mL in HBSS supplemented with 10 mM D-glucose. The peptides were incubated for 4 h at the corresponding peptide concentration at 26 °C or 32 °C for promastigotes and axenic amastigotes, respectively. […] The resulting formazan was solubilized with […] (1% final concentration) and read at 595 nm in a Bio-Rad 640 microplate reader.\n(a) L. pifanoi axenic amastigotes. […] Axenic Leishmania parasites (20 × 10^6 cells/mL) were incubated with the peptides, and MTT reduction measured immediately after 4 h incubation. […]\nFigure 8 Viability of Leishmania donovani promastigotes treated with Dox-conjugates 15 and 16 along with Dox and Dox-TAT. Parasites were incubated with the respective reagents (20 × 10^6 cells/mL, 4 h, 26 °C), and MTT reduction measured afterwards. […]", "data": [{"smiles": "COc1cccc2c1C(=O)c1c(O)c3c(c(O)c1C2=O)C[C@@](O)(C(=O)CO)C[C@@H]3O[C@H]1C[C@H](N)[C@H](O)[C@H](C)O1", "note": "[doxorubicin]", "values": [{"measurement": "Toxicity towards promastigotes (in words)", "result": "did not show any toxicity"}]}]}
